Laboratory results published in patent EP4818178A1, “PREPARATION AND USE OF PYRIMIDOTHIOPYRANONE KRAS MUTANT PROTEIN INHIBITOR” (Ya Therapeutics Inc, priority 2024, dated 2025).

These compounds were tested against KRasG12D (Homo sapiens, UniProt P01116, G12D) (assay: KRAS inhibitory activity test, TR-FRET (inhibition of binding of KRasG12D to GTP, SOS/GTP nucleotide exchange)). Details: read-out: IC50 values of the compounds for inhibiting KRAS enzymes, G12D.
Type: biochemical
Method: • 1. […] Reagent Preparation: • a. Storage Reagents:
Prepare a 1L solution by mixing 20mL of 1000mM HEPES, 20mL of 500mM EDTA, 10mL of 5M sodium chloride, 0.1mL of 100% Tween 20, and 949.9mL of water. Sterilize by filtration and store at 4°C.
Prepare a 1L solution by mixing 20mL of 1000mM HEPES, 10mL of 1000mM magnesium chloride, 30mL of 5M sodium chloride, 0.05mL of 100% Tween 20, and 939.95mL of water. Sterilize by filtration and store at 4°C. 3) KRAS/Bodipy GDP/Tb-SA Mixture: Mix 9.5 µL of 95 µM KRasG12D protein with 440.5 µL of KRAS nucleotide exchange buffer. Incubate at room temperature for 1 hour. Then, mix with 8.4 µL of 17.9 µM Tb-SA, 1.8 µL of 5 mM Bodipy GDP, and 9539.8 µL of KRAS experimental buffer to prepare […]. After mixing, incubate at room temperature for 6 hours and store at -80°C.
• 1) KRAS Enzyme Solution: Mix 73.3 µL of KRAS/Bodipy GDP/Tb-SA mixture with 2126.7 µL of KRAS experimental buffer to prepare a 2200 µL solution. • 2) SOS/GTP Mixture
c. Experimental Procedure: Mix 1.59 µL of 166 µM SOS protein with 198 µL of 100 mM... GTP and 0.41 µL KRAS buffer were prepared to a 2200 µL solution. The stock solution concentration of the control compound was 1 mM, and the stock solution concentration of the test compound was 10 mM. 9 µL of the control compound and the test compound were transferred to a 384-LDV plate. The compound on the LDV plate was 3-fold diluted 10-point using Bravo. 9 nL of the compound on the LDV plate was transferred to the experimental plate using ECHO. 3 µL of a 3 nM Kras/0.5 nM TB-SA/30 nM BodipyGDP mixture and 3 µL of Ras buffer were added to each well of the experimental plate using a Dragonfly autopilot. The plate was centrifuged at 1000 rpm for 1 minute. The plate was incubated at room temperature for 1 hour. 3 µL of 120 nM SOS/9 mM KRAS buffer was added to each well of the experimental plate using a Dragonfly autopilot. The […] was centrifuged at 1000 rpm for 1 minute; the plate was incubated at room temperature for 1 hour; the plate was read and the data were recorded using Envision; the data were analyzed using Excel and Xlfit to calculate the IC50of the test compound. "++++" indicates IC50≤ 10 nM; "+++" indicates 10 nM < IC50≤ 100 nM; "++" indicates 100 nM < IC50≤ 2000 nM; "+" indicates 2000 nM < IC50.
`Cc1cc(N)c(F)c([C@@H]2Cc3nc(OC[C@@]45CCCN4C[C@H](F)C5)nc(N4C[C@H]5CC[C@@H](C4)N5)c3CS2(=O)=O)c1C(F)(F)F` [Compound 33A, (7S)-7-(3-amino-2-fluoro-5-methyl-6-(trifluoromethyl)phenyl)-4-((1R,5S)-3,8-diazabicyclo[3.2.1]octane-3-yl)-2-(((2R,7AS)-2-fluorotetrahydro-1H-pyrrolazin-7a(5H)-yl)methoxy)-7,8-dihydro-5H-thiopyrano[4,3-d]pyrimidine 6,6-Dioxide] was tested, and the IC50 was ≤ 10 nM. In the case of `Cc1cc(N)c(F)c([C@H]2Cc3nc(OC[C@@]45CCCN4C[C@H](F)C5)nc(N4C[C@H]5CC[C@@H](C4)N5)c3CS2(=O)=O)c1C(F)(F)F` [Compound 1B, (7R)-7-(3-amino-2-fluoro-5-methyl-6-(trifluoromethyl)phenyl)-4-((1R,5S)-3,8-diazabicyclo[3.2.1]octane-3-yl)-2-(((2R,7AS)-2-fluorotetrahydro-1H-pyrrolazin-7a(5H)-yl)methoxy)-7,8-dihydro-5H-thiopyrano[4,3-d]pyrimidine 6,6-Dioxide], the IC50 is reported as 10 to 100 nM. `Cc1cc(O)c(F)c([C@@H]2Cc3nc(OC[C@@]45CCCN4C[C@H](F)C5)nc(N4CCC[C@@](C)(O)C4)c3CS2(=O)=O)c1C(F)(F)F` [Compound 6A, (7S)-7-(2-fluoro-3-hydroxy-5-methyl-6-(trifluoromethyl)phenyl)-2-(((2R,7AS)-2-fluorotetrahydro-1H-pyrrolazin-7a(5H)-yl)methoxy)-4-((R)-3-hydroxy-3-methylpiperidin-1-yl)-7,8-dihydro-5H-thiopyrano[4,3-d]pyrimidine-6,6-dioxide] was tested, and the IC50 was ≤ 10 nM. In the case of “7-(3-amino-2-fluoro-5-methyl-6-(trifluoromethyl)phenyl)-4-(1R,5S)-3,8-diazabicyclo [3.2.1]octane-3-yl)-2-(((2R,7AS)-2-fluorotetrahydro-1H-pyrrolazin-7a(5H)-yl)methox y)-7,8-dihydro-5H-thiopyrano[4,3-d]pyrimidine-6,6-dioxide [Compound 36]”, the IC50 is reported as ≤ 10 nM. In the case of “7-(3-amino-2-fluoro-5-methyl-6-(trifluoromethyl)phenyl)-4-(3,8-diazabicyclo[3.2.1]o ctane-3-yl)-2-(((S)-2-(difluoromethylene)tetrahydro-1H-pyrrolazin-7a(5H)-yl)methox y)-7,8-dihydro-5H-thiopyrano[4,3-d]pyrimidine-6,6-dioxide [Compound 9]”, the IC50 is reported as ≤ 10 nM. For `Cc1cc(N)cc([C@@H]2Cc3nc(OC[C@@]45CCCN4C[C@H](F)C5)nc(N4CC5CCC(C4)N5)c3CS2(=O)=O)c1C(F)(F)F` [Compound 37A], the IC50 was ≤ 10 nM. `Cc1cc(N)nc([C@H]2Cc3nc(OC[C@@]45CCCN4C[C@H](F)C5)nc(N4C[C@H]5CC[C@@H](C4)N5)c3CS2(=O)=O)c1C(F)(F)F` [Compound 3B, (7R)-7-(6-amino-4-methyl-3-(trifluoromethyl)pyridin-2-yl)-4-((1R,5S)-3,8-diazabicyclo[3.2.1]octane-3-yl)-2-(((2R,7AS)-2-fluorotetrahydro-1H-pyrrolazin-7a(5H)-yl)methoxy)-7,8-dihydro-5H-thiopyrano[4,3-d]pyrimidine 6,6-Dioxide] was tested, and the IC50 was ≤ 10 nM. In the case of `Cc1cc(N)c(F)c([C@@H]2Cc3nc(OC[C@@]45CCCN4C[C@H](F)C5)nc(N4C[C@H]5CC[C@@H](C4)N5)c3CS2(=O)=O)c1C(F)(F)F` [Compound 36A, (7S)-7-(3-amino-2-fluoro-5-methyl-6-(trifluoromethyl)phenyl)-4-((1R,5S)-3,8-diazabicyclo[3.2.1]octane-3-yl)-2-(((2R,7AS)-2-fluorotetrahydro-1H-pyrrolazin-7a(5H)-yl)methoxy)-7,8-dihydro-5H-thiopyrano[4,3-d]pyrimidine 6,6-Dioxide], the IC50 is reported as ≤ 10 nM. For `CC#Cc1cc(N)cc(C2Cc3nc(OC[C@@]45CCCN4CC(=C(F)F)C5)nc(N4CC5CCC(C4)N5)c3CS2(=O)=O)c1C(F)(F)F` (some centres unmarked) [Compound 31], the IC50 was ≤ 10 nM. `Cc1cc(O)nc([C@H]2Cc3nc(OC[C@@]45CCCN4C[C@H](F)C5)nc(N4C[C@H]5CC[C@@H](C4)N5)c3CS2(=O)=O)c1C(F)(F)F` [Compound 4B, (7R)-4-((1R,5S)-3,8-diazabicyclo[3.2.1]octane-3-yl)-2-(((2R,7AS)-2-fluorotetrahydro-1H-pyrrolazin-7a(5H)-yl)methoxy)-7-(6-hydroxy-4-methyl-3-(trifluoromethyl)pyridin-2-yl)-7,8-dihydro-5H-thiopyrano[4,3-d]pyrimidine-6,6-dioxide] gave an IC50 of 10 to 100 nM. With `Cc1cc(N)c(F)c([C@@H]2Cc3nc(OC[C@@]45CCCN4C[C@H](F)C5)nc(N4C[C@H]5CC[C@@H](C4)N5)c3CS2(=O)=O)c1C(F)(F)F` [Compound 34A, (7S)-7-(3-amino-2-fluoro-5-methyl-6-(trifluoromethyl)phenyl)-4-((1R,5S)-3,8-diazabicyclo[3.2.1]octane-3-yl)-2-(((2R,7AS)-2-fluorotetrahydro-1H-pyrrolazin-7a(5H)-yl)methoxy)-7,8-dihydro-5H-thiopyrano[4,3-d]pyrimidine 6,6-Dioxide] the IC50 was ≤ 10 nM. `Cc1cc(O)c(F)c([C@H]2Cc3nc(OC[C@@]45CCCN4C[C@H](F)C5)nc(N4C[C@H]5CC[C@@H](C4)N5)c3CS2(=O)=O)c1C(F)(F)F` [Compound 2B, (7R)-4-((1R,5S)-3,8-diazabicyclo[3.2.1]octane-3-yl)-7-(2-fluoro-3-hydroxy-5-methyl-6-(trifluoromethyl)phenyl)-2-(((2R,7AS)-2-fluorotetrahydro-1H-pyrrolazin-7a(5H)-yl)methoxy)-7,8-dihydro-5H-thiopyrano[4,3-d]pyrimidine-6,6-dioxide] was tested, and the IC50 was ≤ 10 nM. With “7-(3-amino-2-fluoro-5-methyl-6-(trifluoromethyl)phenyl)-4-(1R,5S)-3,8-diazabicyclo [3.2.1]octane-3-yl)-2-(((2R,7AS)-2-fluorotetrahydro-1H-pyrrolazin-7a(5H)-yl)methox y)-7,8-dihydro-5H-thiopyrano[4,3-d]pyrimidine-6,6-dioxide [Compound 30]” the IC50 was ≤ 10 nM. `Cc1cc(N)c(F)c(C2Cc3nc(OC[C@@]45CCCN4CC(=CF)C5)nc(N4CC5CCC(C4)N5)c3CS2(=O)=O)c1C(F)(F)F` (stereo partly drawn) [Compound 10, 7-7-(3-amino-2-fluoro-5-methyl-6-(trifluoromethyl)phenyl)-4-(3,8-diazabicyclo[3.2.1]octane-3-yl)-2-(((S)-2-(fluoromethylene)tetrahydro-1H-pyrrolazin-7a(5H)-yl)methoxy) -7,8-dihydro-5H-thiopyrano[4,3-d]pyrimidine-6,6-dioxide] was tested, and the IC50 was ≤ 10 nM. For `C=C1CN2CCC[C@@]2(COc2nc3c(c(N4CC5CCC(C4)N5)n2)CS(=O)(=O)C(c2c(F)c(N)cc(C#CC)c2C(F)(F)F)C3)C1` (stereo partly drawn) [Compound 22, 7-(3-amino-2-fluoro-5-(prop-1-yn-1-yl)-6-(trifluoromethyl)phenyl)-4-(3,8-diazabicyclo[3.2.1]octane-3-yl)-2-(((S)-2-(methylene)tetrahydro-1H-pyrrolazin-7a(5H)-yl)methoxy)-7,8-dihydro-5H-thiopyrano[4,3-d]pyrimidine-6,6-dioxide], the IC50 was ≤ 10 nM. `Cc1cc(O)c(F)c([C@H]2Cc3nc(OC[C@@]45CCCN4C[C@H](F)C5)nc(N4CCC[C@@](C)(O)C4)c3CS2(=O)=O)c1C(F)(F)F` [Compound 6B, (7R)-7-(2-fluoro-3-hydroxy-5-methyl-6-(trifluoromethyl)phenyl)-2-(((2R,7AS)-2-fluorotetrahydro-1H-pyrrolazin-7a(5H)-yl)methoxy)-4-((R)-3-hydroxy-3-methylpiperidin-1-yl)-7,8-dihydro-5H-thiopyrano[4,3-d]pyrimidine-6,6-dioxide] showed an IC50 of 10 to 100 nM. `C=C1CN2CCC[C@@]2(COc2nc3c(c(N4CC5CCC(C4)N5)n2)CS(=O)(=O)[C@H](c2c(F)c(N)cc(C#CC)c2C(F)(F)F)C3)C1` [Compound 22A, (7S)-7-(3-amino-2-fluoro-5-(prop-1-yn-1-yl)-6-(trifluoromethyl)phenyl)-4-(3,8-diazabicyclo[3.2.1]octane-3-yl)-2-(((S)-2-(methylene)tetrahydro-1H-pyrrolazin-7a(5H)-yl)methoxy)-7,8-dihydro-5H-thiopyrano[4,3-d]pyrimidine-6,6-dioxide] was tested, and the IC50 was ≤ 10 nM.
